From patent US12077503B2, “Substituted cyclic amides and their use as herbicides” (FMC CORPORATION, priority 2015, dated 2024) come the findings set out here.

Where two headings read alike, the source gives them in different places.

What all share (type): in vivo
For experiment [1], the system named is barnyardgrass (Echinochloa crus-galli). Briefly: Test A preemergence. The settings on record: Echinochloa crus-galli, pre-emergence, 240 h; for pest or weed control at 125 g/ha: 125 g ai/ha; for pest or weed control at 500 g/ha: 500 g ai/ha. In a few lines:
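Treatment is preemergence as a directed soil spray after planting, or postemergence at the one- to two-leaf stage, with test chemical in a non-phytotoxic solvent mixture plus surfactant. Plants stay in the greenhouse about 10 d before visual injury scoring on a 0 to 100 scale versus untreated controls.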

In experiment [2] the test system is sedge, umbrella (small-flower umbrella sedge, Cyperus difformis). Description: Test B flooded paddy test. The settings on record: Cyperus difformis, 250 g ai/ha, Flood. In a few lines: (§1)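 Response scored visually against untreated controls, 0 = no effect and 100 = complete control, 13–15 d after treatment in the greenhouse. Compounds added to paddy water held 3 cm above soil surface. Treatment given at 2-leaf stage.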

The test system of experiment [3] is barnyardgrass (Echinochloa crus-galli). Briefly: Test B flooded paddy test. Conditions: Echinochloa crus-galli, 250 g ai/ha, Flood. The method in brief:
as §1

Experiment [4] relates to rice (Oryra sativa). Description: Test B flooded paddy test. Conditions: Oryza sativa, 250 g ai/ha, Flood. In a few lines:
as §1

The test system of experiment [5] is ducksalad (Heteranthera limosa). Description: Test B flooded paddy test. Conditions: Heteranthera limosa, 250 g ai/ha, Flood. The method in brief:
as §1

Setting [6] is: preemergence, visual injury rating, 0 to 100 scale where 0 is no effect and 100 is complete control, approximately 10 d, read-out: Barnyardgrass plant response rating.
The mark [7] stands for this setting: preemergence, 0 to 100 scale where 0 is no effect and 100 is complete control, read-out: Barnyardgrass plant response rating.
Where [8] appears, read: 0 to 100 scale where 0 is no effect and 100 is complete control, read-out: Sedge, Umbrella plant response rating.
Where [9] appears, read: 0 to 100 scale where 0 is no effect and 100 is complete control, read-out: Barnyardgrass plant response rating.
[10] abbreviates: 0 to 100 scale where 0 is no effect and 100 is complete control, read-out: Rice plant response rating.
[11] abbreviates: 0 to 100 scale where 0 is no effect and 100 is complete control, read-out: Ducksalad plant response rating.
Setting [12] is: preemergence, 0 to 100 scale (0 no effect, 100 complete control), read-out: Plant response rating, Barnyardgrass.
Where [13] appears, read: Preemergence, 0 to 100 scale (0 no effect, 100 complete control), read-out: Plant response rating, Barnyardgrass.
Setting [14] is: 360 h, visually evaluated after 13 to 15 d, read-out: Plant response rating, Sedge, Umbrella (0 to 100 scale where 0 is no effect and 100 is complete control).
Setting [15] is: 360 h, visually evaluated after 13 to 15 d, read-out: Plant response rating, Barnyardgrass (0 to 100 scale where 0 is no effect and 100 is complete control).
Setting [16] is: 360 h, visually evaluated after 13 to 15 d, read-out: Plant response rating, Rice (0 to 100 scale where 0 is no effect and 100 is complete control).
Setting [17] is: 360 h, visually evaluated after 13 to 15 d, read-out: Plant response rating, Ducksalad (0 to 100 scale where 0 is no effect and 100 is complete control).
Setting [18] is: preemergence, visual rating after approx. 10 d, 0 to 100 scale where 0 is no effect and 100 is complete control, read-out: Plant response rating, Barnyardgrass.
Where [19] appears, read: preemergence, 0 to 100 scale, 0 = no effect, 100 = complete control, read-out: Plant response rating, Barnyardgrass.
The mark [20] stands for this setting: scale of 0 to 100 where 0 is no effect and 100 is complete control, read-out: Sedge, Umbrella plant response rating.
The mark [21] stands for this setting: scale of 0 to 100 where 0 is no effect and 100 is complete control, read-out: Barnyardgrass plant response rating.
[22] abbreviates: scale of 0 to 100 where 0 is no effect and 100 is complete control, read-out: Rice plant response rating.
Where [23] appears, read: scale of 0 to 100 where 0 is no effect and 100 is complete control, read-out: Ducksalad plant response rating.

As for `N#Cc1cc([C@H]2CNC(=O)[C@]2(O)C(=O)Nc2ccccc2F)ccc1F` [Compound 1200], the pest or weed control at 125 g/ha in experiment [1] (setting [6]) is 0%. In addition, the pest or weed control at 500 g/ha in experiment [1] (setting [7]) was 0%. For the same compound, the pest or weed control at 250 g/ha in experiment [2] (setting [8]), in experiment [3] (setting [9]), in experiment [4] (setting [10]) and in experiment [5] (setting [11]) was 0% each time.

As to `COc1cc(OC)cc([C@H]2CN(C)C(=O)[C@@H]2C(=O)Nc2cccc(F)c2F)c1` [Compound 1370], the pest or weed control at 500 g/ha in experiment [1] (setting [12]) stood at 90%. For the same compound, the pest or weed control at 125 g/ha in experiment [1] (setting [13]) is 90%. The pest or weed control at 250 g/ha in experiment [2] (setting [14]) was determined as 0%; in experiment [3] (setting [15]) it was 60%; in experiment [4] (setting [16]) it was 20%; in experiment [5] (setting [17]), 70%.

With `COc1ccc([C@H]2CN(C)C(=O)[C@@H]2C(=O)Nc2ccccc2F)c(OC)c1` [Compound 1215], in experiment [1] (setting [6]), the pest or weed control at 125 g/ha is 90%. In experiment [1] (setting [7]), the pest or weed control at 500 g/ha was determined as 100%. Moreover, the pest or weed control at 250 g/ha in experiment [2] (setting [8]) was determined as 0%; in experiment [3] (setting [9]), 0%; in experiment [4] (setting [10]) it was 0%; in experiment [5] (setting [11]), 70%.

For the compound `COc1cc([C@H]2CN(C)C(=O)[C@@H]2C(=O)Nc2cccc(F)c2F)ccc1F` [Compound 1299], the pest or weed control at 125 g/ha in experiment [1] (setting [6]) amounted to 90%. Moreover, the pest or weed control at 500 g/ha in experiment [1] (setting [7]) is 90%. Besides, the pest or weed control at 250 g/ha turned out to be 40% in experiment [2] (setting [8]), 65% in experiment [3] (setting [9]), 20% in experiment [4] (setting [10]) and 85% in experiment [5] (setting [11]).

With `C=CCN1C[C@H](c2ccc(OC)c(F)c2)[C@@H](C(=O)Nc2ccccc2S(C)(=O)=O)C1=O` [Compound 724], the pest or weed control at 125 g/ha in experiment [1] (setting [18]) was found to be 0%. Also, the pest or weed control at 500 g/ha in experiment [1] (setting [19]) came out at 0%. Also, the pest or weed control at 250 g/ha in experiment [2] (setting [20]), in experiment [3] (setting [21]), in experiment [4] (setting [22]) and in experiment [5] (setting [23]) was 0% each time.

In the case of `Cc1c(F)ccc([C@H]2CNC(=O)[C@@H]2C(=O)Nc2ccc(F)cc2F)c1F` [Compound 1328], in experiment [1] (setting [12]), the pest or weed control at 500 g/ha amounted to 90%. The pest or weed control at 125 g/ha in experiment [1] (setting [13]) turned out to be 70%. The pest or weed control at 250 g/ha in experiment [2] (setting [14]) was found to be 0%; in experiment [3] (setting [15]) it was 0%; in experiment [4] (setting [16]), 0%; in experiment [5] (setting [17]), 50%.

Regarding `CN1C[C@H](c2ccc(F)c(Br)c2)[C@@H](C(=O)Nc2cccc(F)c2F)C1=O` [Compound 1234], the pest or weed control at 125 g/ha in experiment [1] (setting [6]) is 100%. The pest or weed control at 500 g/ha in experiment [1] (setting [7]) is 100%. Further, the pest or weed control at 250 g/ha in experiment [2] (setting [8]) was determined as 0%; in experiment [3] (setting [9]), 90%; in experiment [4] (setting [10]), 75%; in experiment [5] (setting [11]), 100%.

Turning to `CSc1ccccc1NC(=O)[C@H]1C(=O)N(C)C[C@@H]1c1ccc2c(c1)OC(F)(F)O2` [Compound 1251], the pest or weed control at 125 g/ha in experiment [1] (setting [6]) was 100%. In experiment [1] (setting [7]), the pest or weed control at 500 g/ha worked out at 100%. In addition, the pest or weed control at 250 g/ha in experiment [2] (setting [8]) was 0%; in experiment [3] (setting [9]), 0%; in experiment [4] (setting [10]) it was 0%; in experiment [5] (setting [11]), 90%.

Turning to `Cc1cc(F)cc([C@H]2CN(C)C(=O)[C@@H]2C(=O)Nc2ccc(F)c(F)c2F)c1` [Compound 801], the pest or weed control at 125 g/ha in experiment [1] (setting [18]) is 90%. The pest or weed control at 31 g/ha in experiment [1] (Preemergence, 31 g ai/ha, 0 to 100 scale (0 no effect, 100 complete control), read-out: Plant response rating, Barnyardgrass) was determined as 80%. Also, the pest or weed control at 250 g/ha in experiment [2] (setting [20]) came to 40%; in experiment [3] (setting [21]) it was 90%; in experiment [4] (setting [22]), 30%; in experiment [5] (setting [23]) it was 90%.

Take `Cc1ccc([C@H]2CCN(C)C(=O)[C@@H]2C(=O)Nc2cccc(F)c2F)cc1` [Compound 1220]: the pest or weed control at 125 g/ha in experiment [1] (setting [6]) amounted to 90%. Further, the pest or weed control at 500 g/ha in experiment [1] (setting [7]) was found to be 90%. Also, the pest or weed control at 250 g/ha in experiment [2] (setting [8]) is 0%; in experiment [3] (setting [9]) it was 70%; in experiment [4] (setting [10]), 10%; in experiment [5] (setting [11]), 95%.

On to `COc1cc([C@H]2CN(C)C(=O)[C@@H]2C(=O)Nc2ccccc2F)cc(OC)c1OC` [Compound 1217], for which, in experiment [1] (setting [6]), the pest or weed control at 125 g/ha stood at 90%. Also, the pest or weed control at 500 g/ha in experiment [1] (setting [7]) amounted to 100%. Besides, the pest or weed control at 250 g/ha in experiment [2] (setting [8]) was determined as 0%; in experiment [3] (setting [9]), 0%; in experiment [4] (setting [10]) it was 25%; in experiment [5] (setting [11]) it was 40%.

Consider `CSc1ccccc1NC(=O)[C@H]1C(=O)N(C)C[C@@H]1c1ccc(C)c(C)c1` [Compound 733], for which the pest or weed control at 125 g/ha in experiment [1] (setting [18]) was determined as 90%. The pest or weed control at 500 g/ha in experiment [1] (setting [19]) was 100%. The pest or weed control at 250 g/ha in experiment [2] (setting [20]) came out at 0%; in experiment [3] (setting [21]), 20%; in experiment [4] (setting [22]) it was 0%; in experiment [5] (setting [23]), 60%.

`CC(F)(F)c1cccc([C@H]2CNC(=O)[C@@H]2C(=O)Nc2cccc(F)c2F)c1` [Compound 779]: in experiment [1] (setting [18]), the pest or weed control at 125 g/ha worked out at 90%. The pest or weed control at 500 g/ha in experiment [1] (Preemergence, visual injury vs untreated controls after approximately 10 d, read-out: Barnyardgrass plant response rating (0 to 100 scale where 0 is no effect and 100 is complete control)) was 90%. In addition, the pest or weed control at 250 g/ha in experiment [2] (setting [20]) came out at 0%; in experiment [3] (setting [21]), 60%; in experiment [4] (setting [22]) it was 0%; in experiment [5] (setting [23]), 100%.

With `CN1CC[C@H](c2ccc(C(F)(F)F)cc2)[C@@H](C(=O)Nc2cccc(F)c2F)C1=O` [Compound 1225], the pest or weed control at 125 g/ha in experiment [1] (setting [6]) was found to be 90%. For the same compound, in experiment [1] (setting [7]), the pest or weed control at 500 g/ha was 90%. Moreover, the pest or weed control at 250 g/ha in experiment [2] (setting [8]) stood at 0%; in experiment [3] (setting [9]), 80%; in experiment [4] (setting [10]), 20%; in experiment [5] (setting [11]), 100%.

`CSc1ccccc1NC(=O)[C@H]1C(=O)N(C)C[C@@H]1c1cccc(C(F)(F)F)c1` [Compound 1249]: in experiment [1] (setting [6]), the pest or weed control at 125 g/ha is 100%. Besides, the pest or weed control at 500 g/ha in experiment [1] (setting [7]) came to 100%. Besides, the pest or weed control at 250 g/ha in experiment [2] (setting [8]) worked out at 0%; in experiment [3] (setting [9]) it was 60%; in experiment [4] (setting [10]), 0%; in experiment [5] (setting [11]), 100%.

For `CSc1ccccc1NC(=O)[C@H]1C(=O)N(C)C[C@@H]1c1cccc(C)c1` [Compound 1232], the pest or weed control at 125 g/ha in experiment [1] (setting [6]) worked out at 90%. In experiment [1] (setting [7]), the pest or weed control at 500 g/ha is 90%. Further, the pest or weed control at 250 g/ha in experiment [2] (setting [8]) was determined as 0%; in experiment [3] (setting [9]), 55%; in experiment [4] (setting [10]) it was 0%; in experiment [5] (setting [11]) it was 95%.

Consider `CN1C[C@H](c2cc(F)cc(C(F)(F)F)c2)[C@@H](C(=O)Nc2cccc(F)c2F)C1=O` [Compound 1214], for which the pest or weed control at 125 g/ha in experiment [1] (setting [6]) came out at 90%. In experiment [1] (setting [7]), the pest or weed control at 500 g/ha came to 90%. Moreover, the pest or weed control at 250 g/ha in experiment [2] (setting [8]) came to 60%; in experiment [3] (setting [9]) it was 70%; in experiment [4] (setting [10]) it was 15%; in experiment [5] (setting [11]), 100%.
